Data reported in US12139505B2, “Compositions useful in therapy of autophagy-related pathologies, and methods of making and using the same” (The University of Toledo, priority 2017, dated 2024).
Entries after “also recorded” stand apart in the source; their conditions may differ. Each block holds one molecule with its values, some of them ahead of it.

Assays:
RG2 glioma cells = experiment: Autophagic flux assay (LC3-II western blot in the presence of bafilomycin-A1); format: cell-based, rat; conditions: RG2 glioma cells, 4 h, 50 nM bafilomycin-A1, western blot
Description: In the assay, cells are treated with subtoxic concentrations of bafilomycin-A, which blocks lysosomal acidification. This prevents autophagosome fusion with lysosomes at a specific point. For example, RG2 glioma cells (or other cell types) are “clamped” by addition of 10-50 nM bafilomycin-A1 to block autophagosome fusion with lysosomes and eliminate autophagy clearance. Then, autophagy flux is measured by the conjugation of phosphatidylethanolamine to LC3-I, yielding an electrophoretically separable LC3-II by western blot. LC3-II acts as a link between nascent autophagosomes and cargo being directed into these structures. An autophagy enhancer will increase LC3-II in the presence of bafilomycin, whereas a compound that inhibits autophagy completion will not do so. Thus, the L3A-I to LC3A-II conversion in the presence of bafilomycin-A1 constitutes a valid measure of autophagy.
For the assays, rat glioma cells RG2 (ATCC® CRL-2433™; RG2 cells) were cultured. […] The cells were then incubated for an additional 4 h. At termination, the cell culture medium was removed, cells were washed with PBS and lysed on ice in Pierce RIPA buffer containing protease and phosphatase inhibitors.
Western Blotting: The proteins were electrophoresed and wet-blotted to polyvinylidine difluoride membranes, blocked overnight in 4% bovine serum albumin, and developed using antibodies obtained from Cell Signaling Technology (L3A: cat #. 4599; ULK1: cat #. 8054, ULK1(p757): cat #. 6880).
RG2 glioma cells were treated without drug (first column in FIG. 8A) or 4 h with 50 nM bafilomycin-A1 (BAF), the indicated concentration of LK, or the phosphonate analog 2-isopropyl-LK-3-phosphonate. The western blot results are shown in FIG. 8A, where the lower band corresponds to LC3-II. An increase in the intensity of this band in the presence of bafilomycin-A1 indicates increased autophagic flux. […] Similar results are shown in FIG. 9 with respect to the LK-P compound 2-butyl-lanthionine-phosphonate (also referred to as 2-n-butyl-lanthionine-phosphonate or 2-n-butyl-LK-P).
RG2 glioma cells (American Tissue Type Collection, ATTC, Rockville MD USA) were treated for 4 h with 50 nM bafilomycin-A1 (previously dissolved to 1000× final concentration in dimethylsulfoxide). Thirty minutes after addition of bafilomycin, cells were treated with test agents at 100× final concentration. Cells were lysed in RIPA buffer containing protease and phosphatase inhibitors. Protein concentration was assayed and normalized to constant values (typically 5-7 mg/mL). Proteins were electrophoresed across 4-20% polyacrylamide gels and wet blotted onto polyvinylidine difluoride (PVDF) membranes. Proteins were blotted with commercially available antibodies against LC3.

[1] = Stability of the isolated solid to high vacuum; format: physicochemical; conditions: isolated white solid, at least overnight
HeLa cells = experiment: Rescue of HeLa cells from TNFa toxicity, tetrazolium reduction assay; format: cell-based; conditions: 20 h 10 ng/mL TNFa, 10 micromolar cycloheximide
Description: HeLa cells were treated 20 h with 10 ng/mL recombinant human TNFa in the presence of 10 micromolar cycloheximide and viability measured by tetrazolium reduction assay.

ULK1 system in RG2 cells = experiment: ULK1/ULK1(p757) quantitative autophagy stimulation assay; format: cell-based, rat; conditions: 24 h in RG2 cells; read-out: EC50 on the ULK1 system (ULK1 increase and ULK1(p757) decrease)
Description: For validation purposes, a second, quantitative autophagy stimulation assay was utilized.

SOD1^G93A mouse = conditions: cited from earlier work
3×Tg-AD mouse = conditions: cited from earlier work
pMCAO = conditions: after pMCAO; cited from earlier work
C6 glioma tumor = conditions: C6 glioma xenograft into rat cortices; cited from earlier work
[2] = measurement of brain LKE levels and animal studies; cited from earlier work
people with ALS = conditions: cited from earlier work

Structure (SMILES): CCCCC1=C(P(=O)(O)O)N[C@H](C(=O)O)CS1
autophagic flux / autophagy stimulation (LC3-II band in the presence of bafilomycin-A1) (RG2 glioma cells): comparable activity; also recorded: stimulate autophagy to varying degrees; also recorded: greater autophagy activation effect than LKE
autophagic flux / autophagy stimulation (LC3-II band in the presence of bafilomycin-A1) (RG2 glioma cells; listed as 2-butyl-LK-P): more effective at inducing autophagic flux than, inter alia, LK-E
stability to high vacuum pressures [1]: stable to high vacuum pressures at least overnight without visual or spectral decomposition

Structure (SMILES): CC(C)C1=C(P(=O)(O)O)NCCS1 [2-isopropyl-AECK-P]
autophagic flux / autophagy stimulation (LC3-II band in the presence of bafilomycin-A1) (RG2 glioma cells): greater autophagy activation effect than LKE
autophagic flux / autophagy stimulation (LC3-II band in the presence of bafilomycin-A1) (RG2 glioma cells; listed as 2-isopropyl AECK-P): comparable activity

Structure (SMILES): CC(C)C1=C(P(=O)(O)O)N[C@H](C(=O)O)CS1 [2-isopropyl-LK-P, 2-isopropyl lanthionine ketimine phosphonate]
autophagic flux / autophagy stimulation (LC3-II band in the presence of bafilomycin-A1) (RG2 glioma cells): stimulates autophagy in RG2 cells at low micromolar concentrations; also recorded: much more potent stimulator of autophagy than LK; also recorded: comparable activity; also recorded: stimulate autophagy to varying degrees; also recorded: increase autophagic flux
autophagic flux / autophagy stimulation (LC3-II band in the presence of bafilomycin-A1) (RG2 glioma cells; listed as 2-isopropyl lanthionine-ketimine-phosphonate): clearly was more potent at 10 mM than was LK
autophagic flux / autophagy stimulation (LC3-II band in the presence of bafilomycin-A1) (RG2 glioma cells; listed as 2-isopropyl-lanthionine-ketimine-3-phosphonate): clearly more potent at 10 μM than LK was
cell death stemming from TNFa treatment (HeLa cells): reduced cell death
EC50 (HeLa cells; Homo sapiens, HeLa, compound 1 h before, read-out: EC50% for reduction of cell death from TNFa): ~10 mM
stability to high vacuum pressures [1]: stable to high vacuum pressures at least overnight without visual or spectral decomposition

Structure (SMILES): CCOC(=O)[C@@H]1CSC(CC)=C(C(=O)O)N1 [Compound 2-ethyl-LKE]
autophagic flux / autophagy stimulation (LC3-II band in the presence of bafilomycin-A1) (RG2 glioma cells): stimulate autophagy in RG2 cells

Structure (SMILES): O=C(O)C1=CSC[C@@H](C(=O)O)N1 [LK, (5R)-3,5,-dicarboxy-1-thia-4-aza-2-cyclohexene, reference compound]
autophagic flux / autophagy stimulation (LC3-II band in the presence of bafilomycin-A1) (RG2 glioma cells): increase autophagic flux

EC50 (ULK1 system in RG2 cells): ~50 nM
Structure (SMILES): CCOC(=O)C1=CSCC(C(=O)O)N1 (stereo not shown) [LKE, lanthionine ketenamine ethyl ester]
autophagic flux / autophagy stimulation (LC3-II band in the presence of bafilomycin-A1) (RG2 glioma cells): stimulate autophagy to varying degrees
lifespan and motor function (SOD1^G93A mouse): increases lifespan and slows decline of motor function
amyloid burden, phospho-tau, microglial activation, cognitive decline (3×Tg-AD mouse): decreases amyloid burden inside neurons and in plaques, decreases phospho-tau accumulation, decreases microglial activation, and slows cognitive decline
infarct volume and functional recovery (pMCAO): decreases infarct volume and improves functional recovery
tumor growth (C6 glioma tumor): slows growth of C6 glioma tumor
βββ (blood brain barrier) penetrability [2]: good βββ penetrability

Structure (SMILES): Nc1nc2ccc(OC(F)(F)F)cc2s1 [Riluzole]
prolongation of life (people with ALS; ALS patients): 2-3 months

Structure (SMILES): CC1=NN(c2ccccc2)C(=O)C1 [edaravone]
clinical decline in daily functioning (people with ALS; people with ALS): slows the clinical decline in daily functioning
